± gives the standard deviation of the averaged measurements.
What was measured:
[1] = compound: CC[C@@H](C(=O)[C@@H](C)[C@@H](O)[C@H](C)[C@@H]1O[C@@H]([C@@H](CC)C(=O)O)CC[C@@H]1C)[C@H]1O[C@]2(C=C[C@@H](O)[C@]3(CC[C@@](C)([C@H]4CC[C@](O)(CC)[C@H](C)O4)O3)O2)[C@H](C)C[C@@H]1C [SALINOMYCIN]; test: surviving fraction relative to DMSO-only wells; higher = less growth inhibition; conditions: exposure time: 5 days
Outline: (§1)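 Lines were retained only if, across three screens, replicate Pearson r was >0.7 and median Z' was >0.3. Viability was measured as CellTiter-Glo luminescence and reported as surviving fraction relative to the median of DMSO-only wells. Readings followed 10 minutes at room temperature, after log-phase tumour cells seeded at 250–500 per well in 384-well plates had been exposed, from 24 hours after seeding, continuously for five days to inhibitors at 0.5, 1, 5, 10, 50, 100, 500 and 1000 nM.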

[2] = compound: Oc1ccc(/C=C/c2cc(O)cc(O)c2)cc1 [RESVERATROL]; test: as above; conditions: exposure time: 5 days
Outline: as §1

Row | Test System | surviving fraction ([1]; 0.5 nM) | surviving fraction ([1]; 1 nM) | surviving fraction ([1]; 5 nM) | surviving fraction ([1]; 10 nM) | surviving fraction ([1]; 50 nM) | surviving fraction ([1]; 100 nM) | surviving fraction ([1]; 500 nM) | surviving fraction ([1]; 1000 nM) | surviving fraction ([2]; 0.5 nM) | surviving fraction ([2]; 1 nM) | surviving fraction ([2]; 5 nM) | surviving fraction ([2]; 10 nM) | surviving fraction ([2]; 50 nM) | surviving fraction ([2]; 100 nM) | surviving fraction ([2]; 500 nM) | surviving fraction ([2]; 1000 nM)
1 | SCC47 HEADNECK | 0.842 ± 0.064 | 0.792 ± 0.026 | 0.977 ± 0.074 | 0.992 ± 0.044 | 1.06 ± 0.085 | 1 ± 0.12 | 0.561 ± 0.068 | 0.489 ± 0.023 | 1.09 ± 0.13 | 1.11 ± 0.096 | 1.09 ± 0.066 | 1.21 ± 0.038 | 1.21 ± 0.072 | 1.17 ± 0.051 | 1.09 ± 0.023 | 1.2 ± 0.057
2 | HELA CERVIX | 0.974 ± 0.053 | 0.936 ± 0.068 | 0.97 ± 0.059 | 0.906 ± 0.041 | 1.03 ± 0.06 | 0.885 ± 0.056 | 0.942 ± 0.056 | 0.55 ± 0.045 | 1.04 ± 0.034 | 1.12 ± 0.036 | 1.06 ± 0.096 | 1.08 ± 0.023 | 1.09 ± 0.066 | 1.12 ± 0.037 | 1.12 ± 0.092 | 1.21 ± 0.066
3 | MDAMB231 BREAST | 0.9877 ± 0.006 | 0.9962 ± 0.0061 | 0.993 ± 0.011 | 0.983 ± 0.018 | 1 ± 0.057 | 0.953 ± 0.016 | 0.559 ± 0.011 | 0.425 ± 0.0083 | 0.97 ± 0.01 | 0.996 ± 0.013 | 0.9638 ± 0.0043 | 0.993 ± 0.016 | 0.9694 ± 0.0024 | 0.998 ± 0.012 | 0.993 ± 0.012 | 1.03 ± 0.053
4 | PCI30 HEADNECK | 0.829 ± 0.026 | 0.895 ± 0.025 | 1.01 ± 0.07 | 0.945 ± 0.03 | 0.813 ± 0.013 | 0.64 ± 0.064 | 0.202 ± 0.005 | 0.145 ± 0.0085 | 1 ± 0.031 | 1.02 ± 0.058 | 1.04 ± 0.03 | 1.1 ± 0.08 | 1.05 ± 0.031 | 1.13 ± 0.045 | 1.07 ± 0.082 | 1.16 ± 0.015
5 | RDES SOFT TISSUE | 1.12 ± 0.12 | 1.21 ± 0.03 | 1.17 ± 0.2 | 1.12 ± 0.13 | 0.438 ± 0.22 | 0.0573 ± 0.0031 | 0.399 ± 0.021 | 0.218 ± 0.014 | 1.25 ± 0.14 | 1.25 ± 0.05 | 1.29 ± 0.042 | 1.32 ± 0.054 | 1.37 ± 0.13 | 1.35 ± 0.24 | 1.68 ± 0.053 | 1.67 ± 0.12
6 | SCC003 HEADNECK | 0.904 ± 0.056 | 0.863 ± 0.098 | 0.946 ± 0.042 | 0.973 ± 0.059 | 1.04 ± 0.11 | 0.897 ± 0.05 | 0.49 ± 0.021 | 0.267 ± 0.016 | 1.05 ± 0.056 | 1.06 ± 0.15 | 1.14 ± 0.012 | 1.12 ± 0.058 | 1.06 ± 0.084 | 1.1 ± 0.064 | 1.09 ± 0.017 | 1.15 ± 0.075
7 | A549 LUNG | 0.944 ± 0.028 | 0.9123 ± 0.005 | 0.95 ± 0.033 | 0.907 ± 0.022 | 1.03 ± 0.028 | 0.97 ± 0.03 | 0.729 ± 0.018 | 0.528 ± 0.033 | 1.03 ± 0.011 | 1.07 ± 0.043 | 1.05 ± 0.024 | 1.05 ± 0.026 | 1.04 ± 0.021 | 1.09 ± 0.06 | 1.07 ± 0.044 | 1.11 ± 0.062
8 | SG28 HEADNECK | 1.05 ± 0.098 | 1.08 ± 0.06 | 1.07 ± 0.16 | 0.835 ± 0.1 | 0.835 ± 0.077 | 0.762 ± 0.046 | 0.498 ± 0.068 | 0.323 ± 0.037 | 1.03 ± 0.12 | 1.07 ± 0.1 | 1.15 ± 0.11 | 1 ± 0.057 | 1.01 ± 0.005 | 1 ± 0.051 | 1.06 ± 0.053 | 1.03 ± 0.2
9 | MDAMB436 BREAST | 0.858 ± 0.039 | 0.902 ± 0.047 | 0.668 ± 0.033 | 0.567 ± 0.042 | 0.464 ± 0.059 | 0.375 ± 0.049 | 0.105 ± 0.0028 | 0.0963 ± 0.0055 | 0.943 ± 0.049 | 1.01 ± 0.17 | 0.998 ± 0.2 | 1.01 ± 0.11 | 1.08 ± 0.21 | 0.993 ± 0.11 | 1.06 ± 0.15 | 1.07 ± 0.056
10 | MDAMB157 BREAST | 0.881 ± 0.017 | 0.904 ± 0.042 | 0.985 ± 0.073 | 0.99 ± 0.044 | 0.982 ± 0.078 | 0.819 ± 0.054 | 0.217 ± 0.043 | 0.139 ± 0.011 | 1.01 ± 0.061 | 1.06 ± 0.048 | 0.972 ± 0.057 | 1.1 ± 0.038 | 0.992 ± 0.025 | 1.07 ± 0.03 | 0.972 ± 0.095 | 1 ± 0.1
11 | HT1080 SOFT TISSUE | 1.03 ± 0.034 | 1.02 ± 0.015 | 1.03 ± 0.024 | 1.05 ± 0.031 | 1.06 ± 0.03 | 1.03 ± 0.089 | 0.78 ± 0.035 | 0.557 ± 0.018 | 1.03 ± 0.031 | 1.03 ± 0.019 | 0.995 ± 0.024 | 1.04 ± 0.033 | 0.984 ± 0.017 | 1.03 ± 0.03 | 1.05 ± 0.013 | 1.1 ± 0.015
12 | CME SYNOVIAL | 1.12 ± 0.14 | 0.826 ± 0.031 | 1.06 ± 0.15 | 0.177 ± 0.069 | 1.14 ± 0.07 | 0.947 ± 0.094 | 0.351 ± 0.018 | 0.141 ± 0.0067 | 1.23 ± 0.043 | 1.29 ± 0.045 | 1.4 ± 0.15 | 1.44 ± 0.15 | 1.37 ± 0.059 | 1.38 ± 0.14 | 1.33 ± 0.18 | 1.21 ± 0.039
13 | U2OS BONE | 1.01 ± 0.022 | 1.02 ± 0.04 | 1.01 ± 0.016 | 1.015 ± 0.0081 | 1.06 ± 0.019 | 1.04 ± 0.029 | 0.783 ± 0.024 | 0.538 ± 0.035 | 1.06 ± 0.018 | 1.04 ± 0.022 | 1.04 ± 0.029 | 1.06 ± 0.054 | 1.06 ± 0.031 | 1.08 ± 0.028 | 1.05 ± 0.033 | 1.05 ± 0.027
14 | H23 LUNG | 0.969 ± 0.043 | 0.957 ± 0.055 | 0.9683 ± 0.0096 | 0.959 ± 0.04 | 1.21 ± 0.03 | 1.19 ± 0.028 | 0.622 ± 0.012 | 0.399 ± 0.007 | 0.99 ± 0.019 | 1.06 ± 0.051 | 1.02 ± 0.071 | 1.05 ± 0.023 | 0.994 ± 0.044 | 1.07 ± 0.036 | 1 ± 0.034 | 1.11 ± 0.096
15 | CAL72 BONE | 1.05 ± 0.037 | 1.02 ± 0.044 | 1.04 ± 0.018 | 1.06 ± 0.027 | 1.11 ± 0.021 | 1.1 ± 0.049 | 0.647 ± 0.087 | 0.564 ± 0.031 | 1.07 ± 0.057 | 1.06 ± 0.084 | 1.05 ± 0.073 | 1.05 ± 0.12 | 1.05 ± 0.055 | 1.08 ± 0.1 | 1.04 ± 0.082 | 1.04 ± 0.12
16 | HCC202 BREAST | 1.39 ± 0.31 | 0.95 ± 0.16 | 0.918 ± 0.26 | 1.13 ± 0.17 | 1.03 ± 0.18 | 0.737 ± 0.16 | 0.189 ± 0.037 | 0.109 ± 0.0082 | 1 ± 0.23 | 1.18 ± 0.11 | 1.14 ± 0.059 | 1.06 ± 0.05 | 1.75 ± 0.46 | 1.49 ± 0.42 | 1.32 ± 0.14 | 1.33 ± 0.39
17 | COLO320DM LARGE INTESTINE | 1.05 ± 0.037 | 1.04 ± 0.036 | 1.11 ± 0.026 | 0.522 ± 0.056 | 1.14 ± 0.12 | 0.966 ± 0.081 | 0.388 ± 0.0066 | 0.1 ± 0.006 | 1.06 ± 0.14 | 1 ± 0.062 | 1.07 ± 0.081 | 1.07 ± 0.04 | 1.03 ± 0.063 | 1.15 ± 0.086 | 1.08 ± 0.077 | 1.12 ± 0.031
18 | 93VU HEADNECK | 0.887 ± 0.048 | 0.885 ± 0.11 | 1.01 ± 0.04 | 1.05 ± 0.023 | 0.976 ± 0.08 | 0.91 ± 0.053 | 0.304 ± 0.041 | 0.177 ± 0.005 | 1.07 ± 0.11 | 1.07 ± 0.095 | 1.11 ± 0.065 | 1.14 ± 0.078 | 1.149 ± 0.0099 | 1.22 ± 0.16 | 1.1 ± 0.068 | 1.11 ± 0.15
19 | CADOES1 SOFT TISSUE | 0.978 ± 0.096 | 0.959 ± 0.036 | 0.838 ± 0.14 | 0.918 ± 0.15 | 0.856 ± 0.041 | 0.454 ± 0.1 | 0.147 ± 0.0061 | 0.105 ± 0.004 | 0.972 ± 0.09 | 0.939 ± 0.14 | 0.952 ± 0.047 | 0.931 ± 0.074 | 0.993 ± 0.023 | 1.02 ± 0.061 | 0.991 ± 0.017 | 1.02 ± 0.068
20 | YAMATO SYNOVIAL | 1.11 ± 0.044 | 0.733 ± 0.042 | 0.984 ± 0.046 | 0.216 ± 0.0092 | 1.05 ± 0.08 | 0.655 ± 0.029 | 0.359 ± 0.013 | 0.133 ± 0.013 | 1.21 ± 0.063 | 1.28 ± 0.1 | 1.34 ± 0.064 | 1.27 ± 0.18 | 1.32 ± 0.18 | 1.31 ± 0.099 | 1.25 ± 0.073 | 1.15 ± 0.15
